Read-outs that look alike come from different tables or passages of the source.
Tests used:
Test in all cases: Test D pre-/postemergence plant response
Type in all cases: in vivo
[1] = system: yellow nutsedge (Cyperus esculentus); settings: Cyperus; for pest or weed control at 8 g/ha: 8 g ai/ha; for pest or weed control at 16 g/ha: 16 g ai/ha; for pest or weed control at 31 g/ha: 31 g ai/ha; for pest or weed control at 62 g/ha: 62 g ai/ha
From the text: (§1) Seeds of plant species selected from blackgrass (Alopecurus myosuroides), Italian ryegrass (Lolium multiflorum), winter wheat (Triticum aestivum), galium (catchweed bedstraw, Galium aparine), corn (Zea mays), large (Lg) crabgrass (Digitaria sanguinalis), giant foxtail (Setaria faberii), johnsongrass (Sorghum halepense), lambsquarters (Chenopodium album), morningglory (Ipomoea coccinea), yellow nutsedge (Cyperus esculentus), pigweed (Amaranthus retroflexus), ragweed (common ragweed, Ambrosia elatior), soybean (Glycine max), bamyardgrass (Echinochloa crus-galli), oilseed rape (Brassica napus), waterhemp (common waterhemp, Amaranthus rudis), and velvetleaf (Abutilon theophrasti) were planted into a blend of loam soil and sand and treated preemergence with test chemicals formulated in a non-phytotoxic solvent mixture which included a surfactant. At the same time, plants selected from these crop and weed species and also kochia (Kochia scoparia), wild oat (Avena fatua), and chickweed (common chickweed, Stellaria media) were planted in pots containing Redi-Earth® planting medium (Scotts Company, 14111 Scottslawn Road, Marysville, Ohio 43041) comprising spaghnum peat moss, vermiculite, wetting agent and starter nutrients and treated with postemergence applications of test chemicals formulated in the same manner. Plants ranged in height from 2 to 18 cm (1- to 4-leaf stage) for postemergence treatments. Treated plants and controls were maintained in a greenhouse for 13 to 15 days, after which time all species were compared to controls and visually evaluated. Plant response ratings, summarized in Table D, are based on a scale of 0 to 100 where 0 is no effect and 100 is complete control. A dash (-) response means no test result.

[2] = system: winter wheat (Triticum aestivum); settings: Triticum aestivum; for plant injury at 8 g/ha: 8 g ai/ha; for plant injury at 16 g/ha: 16 g ai/ha; for plant injury at 31 g/ha: 31 g ai/ha; for plant injury at 62 g/ha: 62 g ai/ha
From the text: as §1

[3] = system: lambsquarters (Chenopodium album); settings: Chenopodium album; for pest or weed control at 8 g/ha: 8 g ai/ha; for pest or weed control at 16 g/ha: 16 g ai/ha; for pest or weed control at 31 g/ha: 31 g ai/ha; for pest or weed control at 62 g/ha: 62 g ai/ha
From the text: as §1

[4] = system: soybean (Glycine max); settings: Glycine max; for plant injury at 8 g/ha: 8 g ai/ha; for plant injury at 16 g/ha: 16 g ai/ha; for plant injury at 31 g/ha: 31 g ai/ha; for plant injury at 62 g/ha: 62 g ai/ha
From the text: as §1

[5] = system: ragweed (common ragweed, Ambrosia elatior); settings: Ambrosia artemisiifolia; for pest or weed control at 8 g/ha: 8 g ai/ha; for pest or weed control at 16 g/ha: 16 g ai/ha; for pest or weed control at 31 g/ha: 31 g ai/ha; for pest or weed control at 62 g/ha: 62 g ai/ha
From the text: as §1

[6] = system: morningglory (Ipomoea coccinea); settings: Ipomoea; for pest or weed control at 8 g/ha: 8 g ai/ha; for pest or weed control at 16 g/ha: 16 g ai/ha; for pest or weed control at 31 g/ha: 31 g ai/ha; for pest or weed control at 62 g/ha: 62 g ai/ha
From the text: as §1

[7] = system: Italian ryegrass (Lolium multiflorum); settings: Lolium multiflorum, post-emergence; Postemergence, 8 g ai/ha; read-out: Plant response rating (scale 0 to 100), Ryegrass, Italian
From the text: as §1

[8] = post-emergence, Postemergence, scale 0 to 100 (0 no effect, 100 complete control), read-out: Nutsedge, Yellow plant response rating
[9] = pre-emergence, Preemergence, scale 0 to 100 (0 no effect, 100 complete control), read-out: Plant response rating, Nutsedge, Yellow
[10] = post-emergence, Postemergence, scale 0 to 100 (0 no effect, 100 complete control), read-out: Wheat plant response rating
[11] = pre-emergence, Preemergence, scale 0 to 100 (0 no effect, 100 complete control), read-out: Plant response rating, Wheat
[12] = post-emergence, Postemergence, scale 0 to 100 (0 no effect, 100 complete control), read-out: Lambsquarters plant response rating
[13] = pre-emergence, Preemergence, scale 0 to 100 (0 no effect, 100 complete control), read-out: Plant response rating, Lambsquarters
[14] = post-emergence, Postemergence, scale 0 to 100 (0 no effect, 100 complete control), read-out: Soybean plant response rating
[15] = pre-emergence, Preemergence, scale 0 to 100 (0 no effect, 100 complete control), read-out: Plant response rating, Soybean
[16] = post-emergence, Postemergence, scale 0 to 100 (0 no effect, 100 complete control), read-out: Ragweed plant response rating
[17] = pre-emergence, Preemergence, scale 0 to 100 (0 no effect, 100 complete control), read-out: Plant response rating, Ragweed
[18] = post-emergence, Postemergence, scale 0 to 100 (0 no effect, 100 complete control), read-out: Morningglory plant response rating
[19] = pre-emergence, Preemergence, scale 0 to 100 (0 no effect, 100 complete control), read-out: Plant response rating, Morningglory

## FC(F)c1cc(-c2ccccc2Oc2ncc(Cl)cn2)no1 [Compound 35, 5-chloro-2-[2-[5-(difluoromethyl)-3-isoxazolyl]phenoxy]pyrimidine]
[1]; post-emergence, Postemergence, read-out: Plant response rating (scale 0 to 100), Nutsedge, Yellow
  pest or weed control at 8 g/ha: 5%
[1]; [8]
  pest or weed control at 16 g/ha: 5%
  pest or weed control at 31 g/ha: 5%
[1]; post-emergence, Postemergence, scale 0 to 100, 0 no effect, 100 complete control, read-out: Plant response rating, Nutsedge, Yellow
  pest or weed control at 62 g/ha: 5%
[1]; [9]
  pest or weed control at 8 g/ha: 0%
  pest or weed control at 16 g/ha: 0%
  pest or weed control at 31 g/ha: 5%
  pest or weed control at 62 g/ha: 5%
[2]; post-emergence, Postemergence, read-out: Plant response rating (scale 0 to 100), Wheat
  plant injury at 8 g/ha: 0%
[2]; [10]
  plant injury at 16 g/ha: 0%
  plant injury at 31 g/ha: 5%
[2]; post-emergence, Postemergence, scale 0 to 100, 0 no effect, 100 complete control, read-out: Plant response rating, Wheat
  plant injury at 62 g/ha: 10%
[2]; [11]
  plant injury at 8 g/ha: 0%
  plant injury at 16 g/ha: 0%
  plant injury at 31 g/ha: 5%
  plant injury at 62 g/ha: 15%
[3]; post-emergence, Postemergence, read-out: Plant response rating (scale 0 to 100), Lambsquarters
  pest or weed control at 8 g/ha: 75%
[3]; [12]
  pest or weed control at 16 g/ha: 80%
  pest or weed control at 31 g/ha: 85%
[3]; post-emergence, Postemergence, scale 0 to 100, 0 no effect, 100 complete control, read-out: Plant response rating, Lambsquarters
  pest or weed control at 62 g/ha: 95%
[3]; [13]
  pest or weed control at 8 g/ha: 100%
  pest or weed control at 16 g/ha: 100%
  pest or weed control at 31 g/ha: 98%
  pest or weed control at 62 g/ha: 100%
[4]; post-emergence, Postemergence, read-out: Plant response rating (scale 0 to 100), Soybean
  plant injury at 8 g/ha: 40%
[4]; [14]
  plant injury at 16 g/ha: 65%
  plant injury at 31 g/ha: 80%
[4]; post-emergence, Postemergence, scale 0 to 100, 0 no effect, 100 complete control, read-out: Plant response rating, Soybean
  plant injury at 62 g/ha: 95%
[4]; [15]
  plant injury at 8 g/ha: 10%
  plant injury at 16 g/ha: 30%
  plant injury at 31 g/ha: 60%
  plant injury at 62 g/ha: 85%
[5]; post-emergence, Postemergence, read-out: Plant response rating (scale 0 to 100), Ragweed
  pest or weed control at 8 g/ha: 40%
[5]; [16]
  pest or weed control at 16 g/ha: 45%
  pest or weed control at 31 g/ha: 85%
[5]; post-emergence, Postemergence, scale 0 to 100, 0 no effect, 100 complete control, read-out: Plant response rating, Ragweed
  pest or weed control at 62 g/ha: 75%
[5]; [17]
  pest or weed control at 8 g/ha: 55%
  pest or weed control at 16 g/ha: 40%
  pest or weed control at 31 g/ha: 75%
  pest or weed control at 62 g/ha: 80%
[6]; post-emergence, Postemergence, read-out: Plant response rating (scale 0 to 100), Morningglory
  pest or weed control at 8 g/ha: 25%
[6]; [18]
  pest or weed control at 16 g/ha: 60%
  pest or weed control at 31 g/ha: 85%
[6]; post-emergence, Postemergence, scale 0 to 100, 0 no effect, 100 complete control, read-out: Plant response rating, Morningglory
  pest or weed control at 62 g/ha: 98%
[6]; [19]
  pest or weed control at 8 g/ha: 0%
  pest or weed control at 16 g/ha: 0%
  pest or weed control at 31 g/ha: 55%
  pest or weed control at 62 g/ha: 90%
[7]
  pest or weed control at 8 g/ha: 0%

Source: patent US10131652B2, “Pyrimidinyloxy benzene derivatives as herbicides” (E. I. DU PONT DE NEMOURS AND COMPANY, priority 2014, dated 2018)
